Assay results taken from patent publication US11191835B2, “Chlorin-vitamin conjugates” (priority 2018, dated 2021).
Where two headings read alike, the source gives them in different places.

Legend:
[1] = test system: triple-positive breast cancer cell ZR-75-1; experiment: Fluorescence microscopy (Hoechst 33258), ZR-75-1 cells; assay type: cell-based, Human; conditions: 24 h compound treatment followed by 2 min light irradiation (1.92 J cm^−2)
Method: Fluorescence microscopy was used to visualize and examine the cell morphological features before and after photosensitization. Specific cellular characteristics can identify the mechanism of cell death which can be exploited to understand therapeutic outcome. […] After aspirating the old growth media, 1 mL of the compound or photosensitizer (with varying concentrations) in fresh pre-warmed media at 37° C. was added to each well. […] Images were recorded using fluorescence microscopy (DAPI for Hoechst 350-390 nm excitation and 460-490 nm emission filters) using an upright fluorescence microscope with Retiga imaging 2000R (Nikon Optiphot-2, 20× and 40×) and an image processing Nikon NIS-Elements V4.0 Qimaging software.

[2] = test system: Mouse colon carcinoma cell line CT26.WT; experiment: Cell survival (MTT) assay, CT26 colon carcinoma cells; assay type: cell-based
Method: Mouse colon carcinoma cell line CT26. WT was purchased from the American Type Culture Collection (ATCC CRL-2638). […] During the incubation period, growth media was changed once with fresh pre-warmed medium (pH 7.2). To harvest the cells, old growth media was aspirated and 5 mL 0.25% trypsin solution (Thermo Sci Hyclone, Waltham, Mass., USA) were added. The cells were incubated for 10 min and gently scraped to detach cells from the flask walls. Clumped cells were broken up gently and 1 mL of the trypsinized cell homogenate suspension was transferred into a new T75 cell culture flask containing pre-warmed media (20 mL) for further culturing. […] After 24 h treatment, old growth media containing the PS or compounds were aspirated out and replaced with fresh media. Plates were then positioned below a non-coherent LumaCare LC-122 650 nm light source for 1, 2, and 5 min at an energy fluence rate of 16 mW/cm^2 (measured using a Newport optical power meter Model 840). Unirradiated cells served as control samples. […] Samples were allowed to incubate for additional 2 h, after which dark blue crystals formed. DMSO was added to each well and plates were shaken at room temperature for 1 h to dissolve the purplish-blue formazan crystals. Absorbance values at 490 nm were measured on a microplate reader (BioRad 550). Cell survival was calculated based on the absorbance of the untreated cells alone (as control) and were directly proportional to the number of viable cells in culture. Results were reported as average of triplicate measurements.

[3] = test system: triple-positive breast cancer cell ZR-75-1; assay type: cell-based; design: % Cell Survival: concentration or dose not given beside the values; conditions: for % Cell Survival: ZR-75-1, 24 h compound treatment followed by 2 min light irradiation (1.92 J cm^−2); for dark toxicity ranking / dark toxicity: unirradiated TPBC cells
Method: (§1) Human mammary epithelial carcinoma cell lines purchased from the American Type Culture Collection ZR-75-1 (ATCC CRL-1500) and BT-549 (ATCC HTB-122) were cultured according to ATCC protocol. Briefly, ZR-75-1 cells were grown in RPMI 1640 medium (ATCC), while BT-549 were grown in RPMI 1640 containing 0.023 IU/mL insulin. Both were supplemented with 10% fetal bovine serum (FBS). Cells were grown to 80-90% confluence in 75-cm^2 culture flasks (Corning) for 4-5 days in a humidified incubator (Fisher Scientific Isotemp) with 5% CO2 at 37° C. During the incubation period, growth media was changed once with fresh pre-warmed media (pH 7.2). To harvest the cells, old growth media was aspirated out and 3 mL 0.25% trypsin solution (Thermo Sci Hyclone) were added. The cells were incubated for 5 min and the cell pellet after centrifugation was resuspended in 3 mL media, broken up gently, then 1 ml of suspended cells was transferred into a new T75 cell culture flask containing pre-warmed media (20 mL) for further culturing.
(§2) Cells were grown to confluence in a 96-well plate (5×10^4 cells/well) and treated for 24 h with compounds or photosensitizers of varying concentrations ranging from 5 nM to 50 μM) in growth media from a stock solution of 10 mM in DMSO (dimethyl sulfoxide, Fisher). After 24 h treatment, old growth media containing the PS or compounds were aspirated out and replaced with fresh media. Plates were then positioned below a non-coherent LumaCare LC-122 650 nm light source for 1, 2, and 5 min at an energy fluence rate of 16 mW/cm^2 (measured using a Newport optical power meter Model 840). Unirradiated cells served as control samples. The following day, cells were washed with pre-warmed PBS, and MTT (3-[4,5-dimethyl-thiazol-2-yl]-2.5-diphenyltetrazolium bromide, Sigma, 0.3 mg/mL) in PBS was added to each well. Samples were allowed to incubate for additional 2 h, after which dark blue crystals formed. DMSO was added to each well and plates were shaken at room temperature for 1 h to dissolve the purplish-blue formazan crystals. Absorbance values at 490 nm were measured on a microplate reader (BioRad 550). Cell survival was calculated based on the absorbance of the untreated cells alone (as control) and were directly proportional to the number of viable cells in culture. Results were reported as average of triplicate measurements.

[4] = test system: triple-negative breast cancer cell BT549; assay type: cell-based; design: % Cell Survival: concentration or dose not given beside the values; conditions: for % Cell Survival: BT549, 24 h compound treatment followed by 2 min light irradiation (1.92 J cm^−2); for dark toxicity / dark toxicity ranking: absence of light
Method: as §1, §2

Molecule	Morphological Features [1]	% Cell Survival [3] [%]	dark toxicity ranking [3]	% Cell Survival [4] [%]	dark toxicity ([4]; TNBC cells, 24-hr treatment)	dark toxicity ranking ([4]; TNBC cells)	dark toxicity [3]	other results
13^1-Hexamethylenediaminyl-Biotinylchlorin e6 dimethyl ester indium (III) chloride [Example 5]	Cell debris apparent	12.9	Example 3>Example 5>MePheo>Example 6	56	exhibited dark toxicity	Example 3 (most phototoxic in the dark)>Example 1>Example 6>Example 5		decrease in cell proliferation of colon cancer cells ([2]; irradiation for 2 min, compared to MePheo, Example 1 or Example 3): 30%
13^1-Hexamethylenediaminyl-bexarotenylchlorin e6 dimethyl ester [Example 2]		4.6		7.7				
13^1-Hexamethylenediaminyl-bexarotenylchlorin e6 dimethyl ester indium (III) chloride [Example 6]	Clustered cells, intact nuclei	80	Example 3>Example 5>MePheo>Example 6	33	exhibited dark toxicity	Example 3 (most phototoxic in the dark)>Example 1>Example 6>Example 5		
C=C(c1ccc(C(=O)O)cc1)c1cc2c(cc1C)C(C)(C)CCC2(C)C [Bexarotene, reference compound]		110		111				
O=C(O)CCCC[C@@H]1SC[C@@H]2NC(=O)N[C@@H]21 [Biotine, biotin, reference compound]		99		116				toxicity to colon cancer cells (cell viability assay) ([2]; in the dark and in the presence of light, concentration up to 50 μM): not toxic
C=Cc1c(C)c2cc3nc(c(CC(=O)OC)c4[nH]c(cc5nc(cc1[nH]2)C(C)=C5CC)c(C)c4C(=O)NCCCCCCNC(=O)CCCC[C@@H]1SC[C@@H]2NC(=O)N[C@@H]21)[C@@H](CCC(=O)OC)[C@@H]3C [Example 1, 13^1-Hexamethylenediaminyl-biotinylchlorin e6 dimethyl ester]		4.2		8.1	exhibited in vitro dark cytotoxicity at 5 μM concentration	Example 3 (most phototoxic in the dark)>Example 1>Example 6>Example 5	no toxicity	increase of cell inhibition upon irradiation compared to methyl pheophorbide (MePheo) ([2]; colon cancer cells, upon irradiation): approximately 19%; dark toxicity ([3]; listed as Example l): no dark toxicity; phototoxicity at nanomolar concentrations ([4]; TNBC cells, 100 nM to 200 nM, light activation): showed a light-activation dose response; cell inhibition ([4]; TNBC cells, 100 nM, 5 min light dose (4.8 J cm^−2)): 60%; reduction in cell proliferation ([4]; TNBC cells, 200 nM, lowest light dose used): ~50%; cell survival in the absence of light ([4]; TNBC cells, 5 μM, 24-hr treatment, no light): 86%
C=Cc1c(C)c2cc3nc(c4c5[nH]c(cc6nc(cc1[nH]2)C(C)=C6CC)c(C)c5C(=O)[C@@H]4C(=O)OC)[C@@H](CCC(=O)OC)[C@@H]3C [Methyl pheophorbide a, reference compound]		3.4	Example 3>Example 5>MePheo>Example 6	21	no significant dark response			
Zn(II)-13^1-Hexamethylenediaminyl-Biotinylchlorin e6 dimethyl ester [Example 3]		15.4	Example 3>Example 5>MePheo>Example 6	16	exhibited dark toxicity	Example 3 (most phototoxic in the dark)>Example 1>Example 6>Example 5	most phototoxic in the dark	
Zn(II)-13^1-Hexamethylenediaminyl-bexarotenylchlorin e6 dimethyl ester [Example 4]	Clustered cells, intact nuclei	105		108	no significant dark response		no toxicity	
